From the supplement of paper PMC10933113
Where a name gives a salt, the structure may show the parent alone. ± gives the uncertainty stated by the source.

How the values were obtained:
[1] = test system: KeratinoSens (HaCaT ARE-luciferase) cells; experiment: AC50 of Nrf2/ARE luciferase induction; higher = less potent; settings: exposure time: 24 h
[2] = test system: KeratinoSens (HaCaT ARE-luciferase) cells; experiment: efficacy of ARE luciferase induction relative to DMSO (% activity over DMSO); higher = stronger induction; settings: exposure time: 24 h
[3] = test system: cysteine peptide Ac-RFAACAA-COOH; experiment: efficacy of cysteine peptide change (negative = depletion) (% activity); higher = less depletion; settings: incubation time: 24 h
[4] = test system: THP-1; experiment: efficacy of IL-8 induction relative to DMSO (% activity); higher = stronger induction; settings: exposure time: 18 h
[5] = test system: lysine peptide Ac-RFAAKAA-COOH; experiment: efficacy of lysine peptide change (negative = depletion) (% activity); higher = less depletion; settings: incubation time: 24 h
[6] = test system: cysteine peptide Ac-RFAACAA-COOH; experiment: AC50 of cysteine peptide concentration-response (direction given by sign of efficacy); higher = less potent; settings: incubation time: 24 h
[7] = test system: KeratinoSens (HaCaT ARE-luciferase) cells; experiment: cytotoxicity AC50 (CellTiter-Fluor viability); higher = less cytotoxic; settings: exposure time: 24 h

Compound	AC50 of Nrf2/ARE luciferase induction [1] [µM]	efficacy of ARE luciferase induction [2]	efficacy of cysteine peptide change [3]	efficacy of IL-8 induction [4]	efficacy of lysine peptide change [5]	AC50 [6] [µM]	cytotoxicity AC50 [7] [µM]
O=C(Oc1ccccc1)c1cccc(C(=O)Oc2ccccc2)c1 [Diphenyl isophthalate]	29.8	56.2 ± 20	-4.99 ± 8.6	0	-2 ± 3.5		
C=C1CC[C@H](O)C/C1=C/C=C1\CCC[C@]2(C)[C@@H]([C@H](C)/C=C/[C@H](C)C(C)C)CC[C@@H]12 [Ergocalciferol*]	34.2	78.7 ± 43	-99.4 ± 8.8	20.2 ± 3.7	-20.5 ± 4.3	28.3 ± 9.3	
CN1C[C@H](C(=O)N[C@]2(C)O[C@@]3(O)[C@@H]4CCCN4C(=O)[C@H](Cc4ccccc4)N3C2=O)C=C2c3cccc4[nH]cc(c34)C[C@H]21 [Ergotamine D-tartrate*]	23.1	61.1 ± 17	-98.5 ± 6.4	15.3 ± 4.1	14.3 ± 3.5	11.4 ± 2.6	
CCOc1ccc2nc(S(N)(=O)=O)sc2c1 [Ethoxzolamide]	25.3	58.7 ± 28	2.67 ± 4.6	10.3 ± 4.8	35.1 ± 5		
C=C1C[C@@H]2[C@H](CC[C@]3(C)C(=O)CC[C@@H]23)[C@@]2(C)C=CC(=O)C=C12 [Exemestane]	33	109 ± 64	-9.57 ± 9.8	3.01 ± 5.2	97.5 ± 6.3		
C/C=C1\C(=O)C[C@H]2[C@@H]3CCC4=CC(=O)CC[C@]4(C)[C@H]3CC[C@]12C [Guggulsterone Z]	53.6	135 ± 63	2.81 ± 4.9	7.24 ± 12	11.4 ± 10		
OC12N=C(c3ccccc3)SC1Cc1cc(Cl)ccc12 (stereo not given) [HMR1426]	28.9	86.8 ± 69		0			
C=CCOC(Cn1ccnc1)c1ccc(Cl)cc1Cl (stereo not given) [Imazalil sulfate]	29.9	40.5 ± 36	38.5 ± 11	0	166 ± 21		
CC(C)=CCC1=C(O)c2ccccc2C(=O)C1=O [Lapachol]	26.7	65.3 ± 5.4	26.5	25.8 ± 1.6	-2.31 ± 13		
O=C(O)Cn1c(C(=O)Nc2nc(-c3ccccc3Cl)cs2)cc2ccccc21 [Lintitript]	32.9	155 ± 87	1.07 ± 9.6	8.96 ± 8.3	-12.9 ± 12		
CC#Cc1cc(C)nc(Nc2ccccc2)n1 [Mepanipyrim]	47.4	73.3 ± 15	-2.96 ± 5.1	4.67 ± 8.1	48.4 ± 24		
COc1ccc(C(c2ccc(OC)cc2)C(Cl)(Cl)Cl)cc1 [Methoxychlor]	43.2	50.9 ± 18	2.72 ± 4.7	21.1 ± 3.3	-3.51 ± 15		
CC(C)Nc1ccc(Nc2ccccc2)cc1 [N-Isopropyl-N'-phenyl-p-phenylenediamine]		-24.8 ± 11	-67.5 ± 20	40.6 ± 19	-5.38 ± 9.3	2.82 ± 1	20.5 ± 6.5
COc1ccc2cc(CCC(C)=O)ccc2c1 [Nabumetone]	3.98	124 ± 44	-3.44 ± 6	0.27 ± 5.5	-2.87 ± 17		7.94
O=C(O)c1ccccc1C(=O)Nc1cccc2ccccc12 [Naptalam*]		61.4 ± 78	-104 ± 4.3	7.99 ± 7	10.2 ± 26	4 ± 1.3	25.1
CCCCC1C(=O)N(c2ccccc2)N(c2ccc(O)cc2)C1=O (stereo not given) [Oxyphenbutazone]		221 ± 160	-95.2 ± 6.3	31.1 ± 25	12.6 ± 12	2.39 ± 0.7	11.7 ± 0.79

Compound	AC50 of Nrf2/ARE luciferase induction [1] [µM]	efficacy of ARE luciferase induction [2]	efficacy of cysteine peptide change [3]	efficacy of IL-8 induction [4]	efficacy of lysine peptide change [5]	AC50 [6] [µM]	cytotoxicity AC50 [7] [µM]
O=C1Nc2ccccc2C1(c1ccc(O)cc1)c1ccc(O)cc1 [Oxyphenisatin]	19	47.8 ± 12	-16.7 ± 14	0	39.7 ± 4.7		
O=[N+]([O-])c1c(Cl)c(Cl)c(Cl)c(Cl)c1Cl [Pentachloronitrobenzene]	42.1	47.4 ± 32	-3.67 ± 6.3	12.2 ± 11	5.1 ± 8.8		
O=CC(=O)c1ccccc1 [Phenyl glyoxal]	35.5	522 ± 80	-26.9 ± 24	0	-25.8 ± 6.1		
Clc1ccccc1-c1nc(-c2ccncc2)no1 [Pifexole]	11.4	60.8 ± 7.6	3.16 ± 5.5	4.35 ± 7.5	10.5 ± 18		
C[C@@H]1O[C@@H](O[C@@H]2C=C3CC[C@@H]4[C@H](CC[C@]5(C)[C@@H](c6ccc(=O)oc6)CC[C@]45O)[C@@]3(C)CC2)[C@H](O)[C@H](O)[C@H]1O [Proscillaridin]	0.27	246 ± 170	2.01 ± 3.5	38.2 ± 14	14.3 ± 11		0.51 ± 0.11
CC(COc1ccc(Oc2ccccc2)cc1)Oc1ccccn1 (stereo not given) [Pyriproxyfen]	34.9	83.9 ± 13	8.09 ± 7	4.2 ± 1.8	-7.08 ± 11		
CC(C)=CCOc1ccc(/C=C/C(=O)c2ccc(OCC=C(C)C)cc2OCC(=O)O)cc1 [Sofalcone]	33	521 ± 240	54.9	0	-12.4 ± 20		
O=C1OC(OC(=O)c2cccnc2Nc2cccc(C(F)(F)F)c2)c2ccccc21 (stereo not given) [Talniflumate]	35.5	1280 ± 66	-29.7 ± 11	9.09 ± 8.3	85.3 ± 9.9		
NC(=O)n1c(O)c(C(=O)c2cccs2)c2cc(Cl)ccc21 [Tenidap*]		19.7 ± 5.4	-110 ± 11	4.22 ± 7.3	11.2 ± 11	50.1	53.4 ± 15
OC[P+](CO)(CO)CO [Tetrakis(hydroxymethyl)phosphonium SO4]	29.4	126 ± 16	43.1 ± 6.6	4.18 ± 7.2	-40.3 ± 14		
NNC(N)=S [Thiosemicarbazide]	15.8	64.8 ± 15	-40.9 ± 11	35.8 ± 29	9.67 ± 17		28.3 ± 3.2
CCN(CC)CCOc1ccc2c(c1)C(=O)c1cc(OCCN(CC)CC)ccc1-2 [Tilorone]	22.1	293 ± 85	-43 ± 15	27.2 ± 3.2	81.7 ± 28		12.6 ± 1.4
CCCOC/C(=N\c1ccc(Cl)cc1C(F)(F)F)n1ccnc1 [Triflumizole]	63.9	134 ± 58	4.17 ± 7.2	38.3 ± 1.3	41.1 ± 13		
O=C(CCCCCCC(=O)Nc1ccccc1)NO [Vorinostat (SAHA)]	11.7	597 ± 130	0	7.76 ± 8.9	11.4 ± 21		11.4 ± 2.1
COP(=O)(OC)O/C(=C\Cl)c1cc(Cl)c(Cl)cc1Cl [Z-Tetrachlorvinphos]	41.8	72.1 ± 13	4.88 ± 8.5	1.71 ± 3	75.2 ± 24		53.6 ± 16
